The values below come from patent US8017585B2, “CXCR4 antagonist and use thereof” (priority 2002, dated 2011).

Structures are written as SMILES. Bridge positions count the residues as written; N and C are the ends. Square brackets hold non-standard residues; d marks the D form. Peptide text beside a SMILES is read from it. * marks the point of attachment. X4 = CN(C)C(=N[C@@H](CCCNC(=N)N)C(=O)*)N(C)C; 2Nal = N[C@@H](Cc1ccc2ccccc2c1)C(=O)O; dCit = NC(=O)NCCC[C@@H](N)C(=O)O; Cit = NC(=O)NCCC[C@H](N)C(=O)O; Ahx = NCCCCCC(=O)O

The subject of test [1] is mouse collagen-induced arthritis. The experiment in a line: Mouse collagen-induced arthritis. Type of test: in vivo, DBA/1JN mouse. As to conditions: known drugs p.o. daily for 2 weeks: Indomethacin 1 mg/kg, methotrexate 3 mg/kg, FK-506 10 mg/kg. The method, then: FK-506 was purified by a known method (Kino T. et al., J. Antibiot., 1987 40(9): 1249-55). […] For 2 weeks after the additional immunization, body weights and hindlimb thickness were measured and arthritis scoring was made. Arthritis scores were scored at 0-3 points of each limb, and evaluated by the total of the same (12 points being the full points; 0, normal; 1, mild swelling or swelling of a single digit; 2, moderate swelling or swelling of plural digits; 3, severe swelling). Two weeks after the immunization, four limbs and sera were picked. After coat blocking bovine type II collagen (10 μg/mL PBS solution) on the immunoplate, 100 μL of 1000 times diluted mouse serum was added, and kept at room temperature for 2 hours. After cleansing, anti-mouse IgG2a antibody (1000 times dilution) was added. After cleansing, TMB was added, kept at room temperature for 30 minutes, H2SO4 of equal amount was added, and A450 nm was measured. Indomethacin (1 mg/kg), methotrexate (3 mg/kg) and FK-506 (10 mg/kg) were suspended to 0.5% methyl cellulose, and orally administered every day for 2 weeks from the day of the additional immunization at the dose of 0.1 mL/10 g body weight. 0.5% methyl cellulose solution of the equal dose was orally administered to the control group. 4Fbenzoyl-TN14003 was dissolved to PBS, and continuously administered using Alzet osmotic pumps (Alza, 0.5 μL/hr 2 weeks). The osmotic pumps were implanted intradermally to the backs of the mice under ether anesthesia on the day before the additional immunization. As the control, pumps injected with PBS were similarly implanted. Evaluation of each drug was made for the value obtained 2 weeks after the additional immunization. Data were expressed as mean value±standard margin of error (n=8-12). Comparison between 2 groups was made by Student's t-test, p≦0.05 was valued as significant. Multiple comparison was made by Dunnett test, p≦0.05 was valued as significant.

The target in test [2] is T1, CXCR4 receptor (Homo sapiens, UniProt P61073).
T1 construct: 50 μL of Jurkat human T-cell leukemia cells (6×10^6 cells/mL) suspended in buffer; endogenous in cells; host or cells: Jurkat human T-cell leukemia cells
T1 sequence (P61073 whole entry): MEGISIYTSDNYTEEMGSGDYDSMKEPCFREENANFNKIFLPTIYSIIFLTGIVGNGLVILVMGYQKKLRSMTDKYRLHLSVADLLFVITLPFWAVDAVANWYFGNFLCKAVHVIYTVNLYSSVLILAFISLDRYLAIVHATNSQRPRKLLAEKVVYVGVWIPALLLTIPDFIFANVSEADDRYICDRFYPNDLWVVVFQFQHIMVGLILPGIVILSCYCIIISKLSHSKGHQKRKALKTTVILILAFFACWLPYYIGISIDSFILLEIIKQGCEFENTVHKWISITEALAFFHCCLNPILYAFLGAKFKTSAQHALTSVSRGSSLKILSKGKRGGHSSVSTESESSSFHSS
The experiment in a line: Inhibition of 125I-CXCL12 binding to CXCR4 receptor on Jurkat cells. The conditions noted are these: Table 1, 125I-CXCL12, 1 hour at room temperature, compounds as acetate salt, read-out: IC50 (nM), inhibitory activity against CXCL12 binding to CXCR4 receptor.
Method: After reaction, suction was made toward the reaction solution by 96 well GF/C filter plate, and each well's radioactivity was measured by top count. As the radioactivity index of 100% when the test compound was not added, and 0% when 100 nM of non-radioisotope-labeled CXCL12 was added, the inhibitory activity of each test compound was measured.

Test [3] concerns human breast cancer MDA-MB-231 cells. The experiment in a line: Inhibition of CXCL12-induced breast cancer cell migration (Transwell). Type of test: cell-based. As to conditions: 10 nM of the antagonist; 100 nM CXCL12; 15 hours. The method, then:
Transwell filter (polycarbonate filter, 8 μm diameter, Costar Company) was treated at 37° C. for 6 hours in 10 μg/mL fibronectin solution and air-dried. 100 nM of CXCL12 (R&D System Company) and 600 μL/well of buffer-A (0.1% bovine serum albumin, DMEM (GibcoBRL) containing 12 mM HEPES) containing the test compound were added to the lower chamber of the Transwell. The test compound and human breast cancer MDA-MB-231 cells (purchased from American Tissue Culture Collection), and 100 μL/well of buffer A containing 2×10^6 cells/mL were added to the upper chamber. […] Cutting off the filter part, adding 0.1 M sodium citrate/50% ethanol solution, and eluting crystal violet absorption at 550 nm was measured. […]
After 15 hours' incubation at 37° C. in 5% CO2 incubator, the upper surface of the filter was wiped and the cell was removed, and then the cell on the lower surface of the filter was fixed and stained with 25% methanol solution containing 0.5% crystal violet (Wako Pure Chemical Ind.), washed by distilled water and air-dried. Cutting off the filter part, adding 0.1 M sodium citrate/50% ethanol solution, and eluting crystal violet absorption at 550 nm was measured. […]

Turning to `COc1ccc2c(c1)c(CC(=O)O)c(C)n2C(=O)c1ccc(Cl)cc1` [Indomethacin, reference compound], in test [1], the arthritis score result is listed as “significant or evident inhibitory activity” and the hindlimb swelling entry is “significantly inhibited”. For the compound `N=C(N)NCCC[C@H](NC(=O)[C@@H]1CSSC[C@H](NC(=O)[C@H](Cc2ccc3ccccc3c2)NC(=O)[C@H](CCCNC(=N)N)NC(=O)[C@@H](N)CCCNC(=N)N)C(=O)N[C@@H](Cc2ccc(O)cc2)C(=O)N[C@@H](CCCNC(=N)N)C(=O)N[C@@H](CCCCN)C(=O)N[C@H](CCC(=O)O)C(=O)N2CCC[C@H]2C(=O)N[C@@H](Cc2ccc(O)cc2)C(=O)N[C@@H](CCCNC(=N)N)C(=O)N[C@@H](CCCNC(N)=O)C(=O)N1)C(=O)O` [TE14005, H-Arg-Arg-Nal-Cys-Tyr-Arg-Lys-DGlu-Pro-Tyr-Arg-Cit-Cys-Arg-OH] (H-RR[2Nal]CYRK[dE]PYR[Cit]CR-OH; disulfide 4-13), the IC50 (in general, the concentration that gives 50% inhibition) in test [2] was 2.2 nM. Also, the “CXCL12-induced migration of MDA-MB-231 cells” value in test [3] is “inhibited”. For `N=C(N)NCCC[C@H](NC(=O)[C@@H]1CSSC[C@H](NC(=O)[C@H](Cc2ccc3ccccc3c2)NC(=O)[C@@H](N)CCCNC(=N)N)C(=O)N[C@@H](Cc2ccc(O)cc2)C(=O)N[C@@H](CCCNC(N)=O)C(=O)N[C@@H](CCCCN)C(=O)N[C@H](CCC(=O)O)C(=O)N2CCC[C@H]2C(=O)N[C@@H](Cc2ccc(O)cc2)C(=O)N[C@@H](CCCNC(=N)N)C(=O)N[C@@H](CCCNC(N)=O)C(=O)N1)C(N)=O` [TF17, H-Arg-Nal-Cys-Tyr-Cit-Lys-DGlu-Pro-Tyr-Arg-Cit-Cys-Arg-NH2] (H-R[2Nal]CY[Cit]K[dE]PYR[Cit]CR-NH2; disulfide 3-12), in test [2], the IC50 was 79 nM. Still for that read-out and setting: with `CN(C)C(=N[C@@H](CCCNC(=N)N)C(=O)N[C@@H](CCCNC(=N)N)C(=O)N[C@@H](Cc1ccc2ccccc2c1)C(=O)N[C@H]1CSSC[C@@H](C(=O)N[C@@H](CCCNC(=N)N)C(N)=O)NC(=O)[C@H](CCCNC(N)=O)NC(=O)[C@H](CCCNC(=N)N)NC(=O)[C@H](Cc2ccc(O)cc2)NC(=O)[C@@H]2CCCN2C(=O)[C@@H](CCCNC(N)=O)NC(=O)[C@H](CCCCN)NC(=O)[C@H](CCCNC(N)=O)NC(=O)[C@H](Cc2ccc(O)cc2)NC1=O)N(C)C` [TF18, TMguanyl-Arg-Arg-Nal-Cys-Tyr-Cit-Lys-DCit-Pro-Tyr-Arg-Cit-Cys-Arg-NH2] (X4-R[2Nal]CY[Cit]K[dCit]PYR[Cit]CR-NH2; disulfide 3-12) the figure was 8 nM. As to `N=C(N)NCCC[C@H](NC(=O)[C@@H]1CSSC[C@H](NC(=O)[C@H](Cc2ccc3ccccc3c2)NC(=O)[C@H](CCCNC(=N)N)NC(=O)[C@H](CCCNC(=N)N)NC(=O)CCCCCN)C(=O)N[C@@H](Cc2ccc(O)cc2)C(=O)N[C@@H](CCCNC(N)=O)C(=O)N[C@@H](CCCCN)C(=O)N[C@H](CCCNC(N)=O)C(=O)N2CCC[C@H]2C(=O)N[C@@H](Cc2ccc(O)cc2)C(=O)N[C@@H](CCCNC(=N)N)C(=O)N[C@@H](CCCNC(N)=O)C(=O)N1)C(N)=O` [TF19, ACA-Arg-Arg-Nal-Cys-Tyr-Cit-Lys-DCit-Pro-Tyr-Arg-Cit-Cys-Arg-NH2] (H-[Ahx]RR[2Nal]CY[Cit]K[dCit]PYR[Cit]CR-NH2; disulfide 5-14), in test [2], the IC50 is 4.5 nM. As for `CN(Cc1cnc2nc(N)nc(N)c2n1)c1ccc(C(=O)N[C@@H](CCC(=O)O)C(=O)O)cc1` [methotrexate, reference compound], in test [1], the arthritis score result was “significant or evident inhibitory activity” and the hindlimb swelling entry is “significantly inhibited”.
